Several values for one entry are separate records, joined by “and”; a condition that tells them apart may be missing. Identical values can stand only once. Entries after “also recorded” stand apart in the source; their conditions may differ. Counter-ions that a name gives are not always drawn. Like-named read-outs stand apart in the source and are kept apart here.
Key:
[1] = biological target: T1, CYP2C9 (Homo sapiens, UniProt P11712); details: cited from earlier work
T1 construct: tissue Cypex Ltd. (UK); host or cells: pooled human liver microsomes, ten donors

[2] = biological target: T2, CYP1A2 (Homo sapiens, UniProt P05177); parameters: tissue Cypex Ltd. (UK); host or cells: pooled human liver microsomes, ten donors; details: CYP1A2, pooled HLMs, competitive ref 32; cited from earlier work
T2 sequence (P05177 1-516): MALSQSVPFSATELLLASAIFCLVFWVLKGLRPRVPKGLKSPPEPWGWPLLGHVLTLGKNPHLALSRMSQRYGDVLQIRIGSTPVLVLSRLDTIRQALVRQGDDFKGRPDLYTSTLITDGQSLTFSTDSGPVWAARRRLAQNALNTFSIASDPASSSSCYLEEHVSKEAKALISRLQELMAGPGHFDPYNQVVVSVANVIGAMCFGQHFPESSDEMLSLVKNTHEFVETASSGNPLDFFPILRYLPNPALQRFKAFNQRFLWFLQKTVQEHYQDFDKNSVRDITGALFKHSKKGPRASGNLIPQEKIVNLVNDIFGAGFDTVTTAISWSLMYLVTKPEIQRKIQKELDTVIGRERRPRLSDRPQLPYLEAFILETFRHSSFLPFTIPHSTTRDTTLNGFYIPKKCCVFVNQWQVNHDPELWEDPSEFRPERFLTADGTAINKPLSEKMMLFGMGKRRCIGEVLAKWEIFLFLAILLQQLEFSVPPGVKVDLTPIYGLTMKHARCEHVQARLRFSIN

[3] = tested on: human CYP1A2 isoform; details: specific human CYP1A2 isoform, competitive ref 32; cited from earlier work
[4] = biological target: T3, CYP2E1 (Homo sapiens, UniProt P05181); details: CYP2E1 ref 28; read-out: Ki, specific inhibitor/reported values; cited from earlier work
T3 construct: tissue Cypex Ltd. (UK); host or cells: pooled human liver microsomes, ten donors

[5] = biological target: T1, CYP2C9; assay: Inhibition of tolbutamide 4-hydroxylation in HLMs; type: in vitro ADME
Experimental: (§1) The CYP isoform-specific probe reactions used were phenacetin O-deethylation (for CYP1A2), coumarin 7-hydroxylation (for CYP2A6), tolbutamide 4-hydroxylation (for CYP2C9), metoprolol α-hydroxylation (for CYP2D6), chlorzoxazone 6-hydroxylation (for CYP2E1), S-mephenytoin 4-hydroxylation (for CYP2C19), and midazolam 1-hydroxylation (for CYP3A4). […] Each reaction was initiated by addition of 1 mg/mL NADPH. The final incubations were performed in a shaking water bath at 37 °C for 30 min. The incubations were performed in triple, and the incubation conditions specific to each CYP isoform were within the linear range for the velocity of the reaction (incubation time as well as substrate and protein concentrations). […] The reactions were stopped by adding 0.2 mL of ice-cold acetonitrile containing irbesartan (114.9 ng/mL) as the internal standard. The samples were vortexed for 5 min. After centrifugation (5415D centrifuge, Eppendorf, Germany) (12,000×g for 10 min), the supernatants were transferred and aliquots of 20 µL were injected into the HPLC–MS/MS system for analysis.
(§2) A pilot inhibitory analysis of each CYP isoform was performed to determine the potency of inhibition and to select CYP isoforms for further detailed study of their inhibitory activities. […] The substrates comprising phenacetin, coumarin, tolbutamide, metoprolol, chlorzoxazone, S-mephenytoin, and midazolam were employed at concentrations of 10, 5, 100, 7.5, 40, 100, and 5 µM, respectively. All incubation conditions were the same as those described above.
(§3) Values of P < 0.05 denoted significance in all cases. […] The activity of each CYP isoform was calculated by the MCR of its corresponding probe substrate to determine the inhibition of the CYP isoforms. […] The IC50 values were determined by analyzing the plot of the logarithm of the inhibitor concentration versus the percentage of activity remaining after inhibition, using the SPSS for Windows Version 11.5 (SPSS Inc., USA). […]

[6] = biological target: T4, CYP2A6 (Homo sapiens, UniProt P11509); assay: Inhibition of coumarin 7-hydroxylation in HLMs; type: in vitro ADME
T4 construct: tissue Cypex Ltd. (UK); host or cells: pooled human liver microsomes, ten donors
T4 sequence (P11509 1-494): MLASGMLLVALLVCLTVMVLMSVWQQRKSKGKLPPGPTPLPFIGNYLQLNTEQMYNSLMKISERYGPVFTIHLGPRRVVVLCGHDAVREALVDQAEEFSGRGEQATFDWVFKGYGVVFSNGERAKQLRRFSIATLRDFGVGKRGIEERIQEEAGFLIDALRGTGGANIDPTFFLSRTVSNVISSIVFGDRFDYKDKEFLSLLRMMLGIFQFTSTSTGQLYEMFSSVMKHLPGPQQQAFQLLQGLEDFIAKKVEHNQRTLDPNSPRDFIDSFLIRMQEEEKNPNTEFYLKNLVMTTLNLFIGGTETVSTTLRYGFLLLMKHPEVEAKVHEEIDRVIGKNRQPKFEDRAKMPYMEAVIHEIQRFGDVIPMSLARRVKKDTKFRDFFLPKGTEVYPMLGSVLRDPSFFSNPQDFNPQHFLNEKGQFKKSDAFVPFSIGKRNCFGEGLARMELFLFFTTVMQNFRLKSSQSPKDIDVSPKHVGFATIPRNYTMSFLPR
Experimental: as §1, §2, §3

[7] = Effects of specific CYP inhibitors on metabolic clearance rate (MCR) of STS in HLMs; type: in vitro ADME, human; details: STS 10 µM, in the presence of KET 1 µM
[8] = rats, cited from earlier work
[9] = biological target: T5, CYP2C19 (Homo sapiens, UniProt P33261); assay: Inhibition of S-mephenytoin 4-hydroxylation in HLMs; type: in vitro ADME
T5 construct: tissue Cypex Ltd. (UK); host or cells: pooled human liver microsomes, ten donors
Experimental: as §1, §2, §3

[10] = biological target: T6, CYP3A4 (Homo sapiens, UniProt P08684); assay: Kinetic analysis of STS metabolism by recombinant CYP3A4; type: in vitro ADME
Experimental: The CYP isoform-specific probe reactions used were phenacetin O-deethylation (for CYP1A2), coumarin 7-hydroxylation (for CYP2A6), tolbutamide 4-hydroxylation (for CYP2C9), metoprolol α-hydroxylation (for CYP2D6), chlorzoxazone 6-hydroxylation (for CYP2E1), S-mephenytoin 4-hydroxylation (for CYP2C19), and midazolam 1-hydroxylation (for CYP3A4). […] Each reaction was initiated by addition of 1 mg/mL NADPH. The final incubations were performed in a shaking water bath at 37 °C for 30 min. The incubations were performed in triple, and the incubation conditions specific to each CYP isoform were within the linear range for the velocity of the reaction (incubation time as well as substrate and protein concentrations). […]
The incubation conditions consisted of substrate probe, HLMs (0.5 mg/mL) or CYP isoforms (10 pmol), and 0.1 M sodium phosphate buffer (pH 7.4) in a total volume of 0.2 mL. […] All values were expressed as the mean ± standard deviation (SD). […]
as §3

[11] = biological target: T6, CYP3A4; assay: Inhibition of midazolam 1-hydroxylation in HLMs (IC50, Ki, Dixon plots); type: in vitro ADME; parameters: tissue Cypex Ltd. (UK); host or cells: pooled human liver microsomes, ten donors
Experimental: as §1, §2
Therefore, Dixon plots for the inhibition of CYP3A4 were determined by incubating the substrate probe at multiple concentrations with or without the test inhibitor at multiple concentrations with the HLMs and cofactors. The inhibition data obtained from the pilot experiments were used as a guide to generate appropriate probe substrate and test inhibitor concentrations for determination of the Ki values for each CYP isoform. The isoform-specific probe substrate concentrations used were 5–50 µM midazolam for CYP3A4.
(§4) Values of P < 0.05 denoted significance in all cases. […] The activity of each CYP isoform was calculated by the MCR of its corresponding probe substrate to determine the inhibition of the CYP isoforms. […] The IC50 values were determined by analyzing the plot of the logarithm of the inhibitor concentration versus the percentage of activity remaining after inhibition, using the SPSS for Windows Version 11.5 (SPSS Inc., USA). The inhibition data were fitted to different models of enzyme inhibition (competitive, noncompetitive, and uncompetitive) by nonlinear least-squares regression analysis using GraphPad Prism 5 software (GraphPad Co. Ltd., USA) to calculate the Ki values.

[12] = biological target: T3, CYP2E1; assay: Inhibition of chlorzoxazone 6-hydroxylation in HLMs; type: in vitro ADME
Experimental: as §1, §2, §3

[13] = biological target: T2, CYP1A2; assay: Inhibition of phenacetin O-deethylation in HLMs; type: in vitro ADME; parameters: tissue Cypex Ltd. (UK); host or cells: pooled human liver microsomes, ten donors
Experimental: as §1, §2, §3

[14] = biological target: T2, CYP1A2; details: in vivo; cited from earlier work
[15] = biological target: T7, CYP2D6 (Homo sapiens, UniProt P10635); assay: Inhibition of metoprolol α-hydroxylation in HLMs; type: in vitro ADME
T7 construct: tissue Cypex Ltd. (UK); host or cells: pooled human liver microsomes, ten donors
Experimental: as §1, §2, §3

[16] = biological target: T6, CYP3A4; assay: MCR of STS with recombinant CYP3A4 under inhibition by KET; type: in vitro ADME; details: KET 1 µM
[17] = Kinetic analysis of STS metabolism by human liver microsomes; type: in vitro ADME
Experimental: as §1
The incubation conditions consisted of substrate probe, HLMs (0.5 mg/mL) or CYP isoforms (10 pmol), and 0.1 M sodium phosphate buffer (pH 7.4) in a total volume of 0.2 mL. […] All values were expressed as the mean ± standard deviation (SD). The mean intrinsic clearance rate (CLint) for the in vitro incubation was estimated by Vmax/Km.
as §4

[18] = rats, intravenous 2 mg/kg, cited from earlier work
[19] = classification of Kong et al., read-out: potency class of inhibitor by IC50

T7 sequence (P10635 whole entry): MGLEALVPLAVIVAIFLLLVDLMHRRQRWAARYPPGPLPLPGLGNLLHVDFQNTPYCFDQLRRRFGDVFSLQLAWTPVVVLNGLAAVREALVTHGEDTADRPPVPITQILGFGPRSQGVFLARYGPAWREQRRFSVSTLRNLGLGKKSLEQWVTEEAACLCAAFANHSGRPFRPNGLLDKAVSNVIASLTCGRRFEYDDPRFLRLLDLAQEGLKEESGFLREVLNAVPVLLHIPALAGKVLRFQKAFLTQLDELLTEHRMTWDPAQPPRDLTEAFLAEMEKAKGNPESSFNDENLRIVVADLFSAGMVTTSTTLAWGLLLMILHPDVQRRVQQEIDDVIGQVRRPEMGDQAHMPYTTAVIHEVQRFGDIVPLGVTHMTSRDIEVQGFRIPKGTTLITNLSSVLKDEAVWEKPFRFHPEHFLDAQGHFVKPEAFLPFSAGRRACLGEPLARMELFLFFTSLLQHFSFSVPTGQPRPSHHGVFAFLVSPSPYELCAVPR
T6 sequence (P08684 whole entry, canonical isoform): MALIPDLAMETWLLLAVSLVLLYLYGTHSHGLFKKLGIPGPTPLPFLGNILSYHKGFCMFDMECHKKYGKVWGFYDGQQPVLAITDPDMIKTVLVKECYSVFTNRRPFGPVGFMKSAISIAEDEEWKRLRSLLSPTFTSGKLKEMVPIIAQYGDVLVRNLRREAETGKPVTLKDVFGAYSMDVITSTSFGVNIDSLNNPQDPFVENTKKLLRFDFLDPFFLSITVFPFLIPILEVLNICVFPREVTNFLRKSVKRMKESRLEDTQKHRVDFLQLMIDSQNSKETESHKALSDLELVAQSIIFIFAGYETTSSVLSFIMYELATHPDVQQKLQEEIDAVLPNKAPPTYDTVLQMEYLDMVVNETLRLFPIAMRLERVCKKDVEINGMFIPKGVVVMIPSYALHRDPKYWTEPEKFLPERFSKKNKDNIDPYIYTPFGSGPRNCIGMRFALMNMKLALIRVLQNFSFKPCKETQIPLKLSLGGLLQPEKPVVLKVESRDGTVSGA
T1 sequence (P11712 whole entry): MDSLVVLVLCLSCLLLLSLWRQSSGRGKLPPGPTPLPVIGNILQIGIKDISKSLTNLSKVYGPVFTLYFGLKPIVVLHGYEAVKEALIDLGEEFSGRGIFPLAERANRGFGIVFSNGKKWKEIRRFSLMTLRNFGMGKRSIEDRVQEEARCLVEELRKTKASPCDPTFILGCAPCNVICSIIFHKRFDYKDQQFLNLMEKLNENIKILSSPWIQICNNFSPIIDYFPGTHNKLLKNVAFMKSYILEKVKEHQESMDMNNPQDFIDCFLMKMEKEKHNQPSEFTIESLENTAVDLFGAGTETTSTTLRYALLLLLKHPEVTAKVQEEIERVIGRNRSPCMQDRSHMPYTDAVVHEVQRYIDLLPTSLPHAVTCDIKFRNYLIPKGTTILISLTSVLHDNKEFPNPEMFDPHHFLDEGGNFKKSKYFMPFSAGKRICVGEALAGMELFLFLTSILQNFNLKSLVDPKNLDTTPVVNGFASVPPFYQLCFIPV
T5 sequence (P33261 whole entry): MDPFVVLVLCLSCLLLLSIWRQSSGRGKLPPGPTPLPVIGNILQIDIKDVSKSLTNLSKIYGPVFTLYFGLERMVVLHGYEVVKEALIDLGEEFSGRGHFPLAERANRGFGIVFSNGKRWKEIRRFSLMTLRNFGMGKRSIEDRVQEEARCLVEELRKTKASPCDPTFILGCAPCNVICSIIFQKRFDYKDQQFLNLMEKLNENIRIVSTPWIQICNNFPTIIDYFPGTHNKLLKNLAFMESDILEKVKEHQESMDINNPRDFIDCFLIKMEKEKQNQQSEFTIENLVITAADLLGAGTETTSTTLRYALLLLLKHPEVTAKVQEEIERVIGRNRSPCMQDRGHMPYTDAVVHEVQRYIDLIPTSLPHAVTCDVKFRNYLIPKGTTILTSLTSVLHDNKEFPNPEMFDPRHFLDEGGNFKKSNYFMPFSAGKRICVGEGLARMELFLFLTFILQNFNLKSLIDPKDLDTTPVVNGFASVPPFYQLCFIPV
T3 sequence (P05181 whole entry): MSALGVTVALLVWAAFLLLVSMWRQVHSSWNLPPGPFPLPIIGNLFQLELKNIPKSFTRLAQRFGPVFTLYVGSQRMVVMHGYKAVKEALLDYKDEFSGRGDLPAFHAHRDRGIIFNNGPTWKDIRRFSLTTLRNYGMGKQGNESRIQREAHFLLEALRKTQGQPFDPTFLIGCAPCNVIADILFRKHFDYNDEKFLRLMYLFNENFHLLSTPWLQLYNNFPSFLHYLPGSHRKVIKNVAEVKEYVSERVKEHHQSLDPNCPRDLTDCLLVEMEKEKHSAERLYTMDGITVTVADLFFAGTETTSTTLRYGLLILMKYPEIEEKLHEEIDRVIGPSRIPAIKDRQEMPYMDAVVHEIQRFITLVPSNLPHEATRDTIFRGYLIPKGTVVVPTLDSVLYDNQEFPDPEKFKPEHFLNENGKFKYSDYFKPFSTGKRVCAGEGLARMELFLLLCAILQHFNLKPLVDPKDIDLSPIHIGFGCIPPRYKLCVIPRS

Compound: Cc1coc2c1C(=O)C(=O)c1c-2ccc2c1CCCC2(C)C [tanshinone IIA]
- inhibition of CYP2C9 [1]: medium competitive inhibitor
- Ki [2]: 1.45 µM
- Ki [3]: 0.05 µM

Compound: Cc1ncsc1CCCl [CHL, chlormethiazole hydrochloride]
- Ki [4]: 12 µM

Compound: Cc1c(S(=O)(=O)O)oc2c1C(=O)C(=O)c1c-2ccc2c1CCCC2(C)C [STS, sodium tanshinone IIA sulfonate]
- inhibitory effect on CYP2C9 activity ([5]; STS 1–100 µM, HLMs): minimal; also recorded: negligible
- IC50 ([5]; STS 1–100 µM, tolbutamide 100 µM, HLMs, read-out: IC50): > 100 µM
- IC50 [5, 19]: ≥ 50 µM
- inhibitory effect on CYP2A6 activity ([6]; STS 1–100 µM, HLMs): minimal; also recorded: negligible
- IC50 ([6]; STS 1–100 µM, coumarin 5 µM, HLMs, read-out: IC50): > 100 µM
- IC50 [6, 19]: ≥ 50 µM
- MCR of STS, of control [7]: 37.4%
- plasma concentration ([8]; 4 h after the injection ref 15, 16): ≤ 20 ng/mL
- t1/2 ([8]; after injection ref 15, 16): < 54 min
- inhibitory effect on CYP2C19 activity ([9]; STS 1–100 µM, HLMs): minimal; also recorded: negligible
- IC50 ([9]; STS 1–100 µM, S-mephenytoin 100 µM, HLMs, read-out: IC50): > 100 µM
- IC50 [9, 19]: ≥ 50 µM
- Vmax ([10]; Fig. 2b, CYP3A4, printed in picture): 6.8
- in vitro CLint ([10]; STS with CYP3A4, Vmax/Km): 0.902 mL/nmol P450/min
- Ki fold higher than that of KET ([11]; HLMs, versus reported KET value): approximately 212 fold
- IC50 ([11]; STS 1–100 µM, midazolam 5 µM, HLMs, brackets = 95 % confidence interval, read-out: IC50): 6.4 µM and 6.38 µM
- IC50 [11, 19]: ≤ 10 µM
- type of inhibition ([11]; midazolam 1-hydroxylation in HLMs, Dixon / Lineweaver–Burk plots): competitive type of inhibition; also recorded: full competitive inhibition
- IC50 fold higher than that of KET ([11]; midazolam 1-hydroxylation, HLMs, versus reported KET values): 26.6–79.7 fold
- Ki ([11]; midazolam 5–50 µM, STS 0–100 µM, HLMs, competitive model, brackets = 95 % confidence interval): 3.18 µM
- inhibitory effect on CYP2E1 activity ([12]; STS 1–100 µM, HLMs): minimal; also recorded: negligible
- IC50 ([12]; STS 1–100 µM, chlorzoxazone 40 µM, HLMs, read-out: IC50): > 100 µM
- IC50 [12, 19]: ≥ 50 µM
- inhibitory effect on CYP1A2 activity ([13]; STS 1–100 µM, HLMs): minimal; also recorded: negligible; also recorded: not an inhibitor
- IC50 ([13]; STS 1–100 µM, phenacetin 10 µM, HLMs, read-out: IC50): > 100 µM
- IC50 [13, 19]: ≥ 50 µM
- increase of CYP1A2 activity [14]: 41.1%
- inhibitory effect on CYP2D6 activity ([15]; STS 1–100 µM, HLMs): minimal; also recorded: negligible
- IC50 ([15]; STS 1–100 µM, metoprolol […], HLMs, read-out: IC50): > 100 µM
- IC50 [15, 19]: ≥ 50 µM
- MCR of STS, of control value ([16]; recombinant CYP3A4, STS 10 µM): 58.4%
- MCR of STS, of control value ([16]; recombinant CYP3A4, STS 50 µM): 29.4%
- Vmax ([17]; Fig. 2a, human liver microsomes): 0.9
- Vmax ([17]; STS metabolism, HLMs 0.5 mg/mL, mean ± SD): 0.9 ± 0.1 nmol/mg protein/min
- Km ([17]; human, human liver microsomes, pH 7.4): 54.8 ± 14.6 µM
- microsomal CLint ([17]; human, human liver microsomes, pH 7.4, read-out: in vitro CLint): 16 µL/min/mg
- maximal STS concentration in liver ([18]; 5 min after administration ref 15, 16): > 10 µg/mL
- detection in other tissues ([18]; 2 h after administration, other tissues ref 15, 16): hardly detected
- time after administration at which STS could be determined ([18]; kidney ref 15, 16): 4 h
- time after administration at which STS could be determined ([18]; liver ref 15, 16): 12 h
